Experimental data taken from PubChem BioAssay (NCI).
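Method: 48-hour compound exposure of cells in 96-well plates, five concentrations, linear interpolation of endpoints. At the GI50, growth is halved. At the TGI there is no net growth.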 The source made the active and inactive calls. Rule as the data show it: active = GI50 below about 0.43 µM; inactive = the rest.

test system: KM20L2 colon; assay: growth of human tumour cells (NCI), 48 h

| SMILES | TGI | outcome | GI50 |
| --- | --- | --- | --- |
| COc1ccc(/C(Cl)=C(\C=O)c2ccc([N+](=O)[O-])cc2)cc1 | 41.8 µM |  |  |
| Cc1ccc(-c2cc(=O)c3cc(C)c(C)c(C(=O)O)c3o2)cc1C | > 100 µM |  |  |
| O=C(/C=C/c1c(O)ccc2ccccc12)c1ccccc1 | > 100 µM |  |  |
| Cc1nc2ccccc2c(=O)n1-c1ccccc1F | > 100 µM |  |  |
| Clc1ccc(-c2c(C3=NCCCN3)nnn2-c2ccc(Cl)cc2)cc1 | > 100 µM |  |  |
| Fc1ccc(C2SCc3nc4ccccc4n32)cc1Cl (configuration not stated) | > 100 µM |  |  |
| CC1=N/C(=C\c2cccc([N+](=O)[O-])c2)C(=O)O1 | > 100 µM |  |  |
| CC(C)N1CN(C(C(=O)N[C@@H]2C(=O)N3C2SC(C)(C)C3C(=O)O)c2ccccc2)CSC1=S (some centres not stated) | > 100 µM |  |  |
| CC(C)c1cc2c(O)c(c1)Cc1cc(C(C)C)cc(c1O)Cc1cc(C(C)C)cc(c1O)Cc1cc(C(C)C)cc(c1O)C2 | > 100 µM |  |  |
| COc1ccc(/C=C\c2cc(OC)c(OC)c(OC)c2)cc1OC(=O)NCCN(C)C | 1.17 µM |  |  |
| CCCCOC(=O)NC(=O)c1cn(C2CCCCC2)c(=O)[nH]c1=O | > 100 µM |  |  |
| COc1cc2c(c(OC)c1)C1(CC(CC#N)C2)SCCS1 (configuration not stated) | > 100 µM |  |  |
| CCOC(=O)CCn1[nH]c(=O)c(Cl)c(Cl)c1=O | > 100 µM |  |  |
| Nc1ncn(C2CC(O)C(CO)O2)c(=O)n1 (configuration not stated) | > 375 µM |  |  |
| COc1ccc(CNc2nc3cc(C(F)(F)F)ccc3nc2C)cc1OC | > 100 µM |  |  |
| C/C=C1/C(=C/c2[nH]c(/C=c3\[nH]/c(=C/C4=NC(=O)C(CC)=C4C)c(C)c3CCC(=O)O)c(CCC(=O)O)c2C)NC(=O)C1C (configuration not stated) |  | inactive |  |
| N#CCc1ccc(C(C#N)/C(CCCC(=O)Nc2cccc([N+](=O)[O-])c2)=N/NC(N)=S)cc1 (configuration not stated) | > 100 µM |  |  |
| CC(C)c1ccc(C(c2ccc(OCC(=O)O)cc2)c2ccc(C(C)C)cc(=O)c2O)c(O)c(=O)c1 | > 100 µM |  |  |
| N#C/C(=C\c1cc2ccccc2c2ccccc12)c1ccccc1 | 13.8 µM |  |  |
| CCOc1ccc2c(c1)[n+]([O-])c(-c1nc3ccccc3s1)c(N)[n+]2[O-] | > 100 µM |  |  |
| COc1ccc2c3c(coc13)C(CCC(=O)O)CC2 (configuration not stated) | > 100 µM |  |  |
| CS(=O)(=O)c1cc(=O)c2ccccc2s1 | 28.2 µM |  |  |
| Cc1ccc2c(c1)CN(C(=O)CCC(=O)OCc1ccccc1)c1ccc(C)cc1CN2C(=O)CCC(=O)OCc1ccccc1 | > 100 µM |  |  |
| O=c1[nH]c(=O)n(C2OC(CO)C(O)C(O)C2O)cc1F (configuration not stated) | > 100 µM |  |  |
| c1cc[c]([Pb]([c]2ccccc2)[c]2ccccc2)cc1 | 91.6 µM |  | 23.3 µM |
| CC(=O)N1C/C(=C\c2ccc(N(C)C)cc2)C(=O)/C(=C/c2ccc(N(C)C)cc2)C1 | > 100 µM |  |  |
| Cc1[nH]c2ccccc2c1C1Cc2ccccc2N1C(=O)/C(Cl)=C/c1ccccc1 (configuration not stated) | > 100 µM |  |  |

test system: DMS 114 small cell lung; assay: growth of human tumour cells (NCI), 48 h

| SMILES | TGI | GI50 |
| --- | --- | --- |
| COc1ccc(/C(Cl)=C(\C=O)c2ccc([N+](=O)[O-])cc2)cc1 | 68.5 µM |  |
| Cc1ccc(-c2cc(=O)c3cc(C)c(C)c(C(=O)O)c3o2)cc1C | > 100 µM |  |
| O=C(/C=C/c1c(O)ccc2ccccc12)c1ccccc1 | > 100 µM |  |
| Cc1nc2ccccc2c(=O)n1-c1ccccc1F | > 100 µM |  |
| Clc1ccc(-c2c(C3=NCCCN3)nnn2-c2ccc(Cl)cc2)cc1 | 49.5 µM |  |
| Fc1ccc(C2SCc3nc4ccccc4n32)cc1Cl (configuration not stated) | 57.4 µM |  |
| CC1=N/C(=C\c2cccc([N+](=O)[O-])c2)C(=O)O1 | > 100 µM |  |
| CC(C)N1CN(C(C(=O)N[C@@H]2C(=O)N3C2SC(C)(C)C3C(=O)O)c2ccccc2)CSC1=S (some centres not stated) | > 100 µM |  |
| CC(C)c1cc2c(O)c(c1)Cc1cc(C(C)C)cc(c1O)Cc1cc(C(C)C)cc(c1O)Cc1cc(C(C)C)cc(c1O)C2 | > 100 µM |  |
| COc1ccc(/C=C\c2cc(OC)c(OC)c(OC)c2)cc1OC(=O)NCCN(C)C | < 0.0001 µM |  |
| CCCCOC(=O)NC(=O)c1cn(C2CCCCC2)c(=O)[nH]c1=O | > 100 µM |  |
| COc1cc2c(c(OC)c1)C1(CC(CC#N)C2)SCCS1 (configuration not stated) | > 100 µM |  |
| CCOC(=O)CCn1[nH]c(=O)c(Cl)c(Cl)c1=O | > 100 µM |  |
| Nc1ncn(C2CC(O)C(CO)O2)c(=O)n1 (configuration not stated) | > 375 µM |  |
| C/C=C1/C(=C/c2[nH]c(/C=c3\[nH]/c(=C/C4=NC(=O)C(CC)=C4C)c(C)c3CCC(=O)O)c(CCC(=O)O)c2C)NC(=O)C1C (configuration not stated) | > 150 µg/mL | > 150 µg/mL |
| COc1cccc(/C=C2\C(=O)N(C(=O)c3ccc(NC(C)=O)cc3)N=C2C)c1 | > 100 µM |  |
| N#CCc1ccc(C(C#N)/C(CCCC(=O)Nc2cccc([N+](=O)[O-])c2)=N/NC(N)=S)cc1 (configuration not stated) | > 100 µM |  |
| COC(C(O)c1ccc2c(c1)OCO2)P(=O)(c1ccccc1)c1ccccc1 (configuration not stated) | > 100 µM |  |
| CC(C)c1ccc(C(c2ccc(OCC(=O)O)cc2)c2ccc(C(C)C)cc(=O)c2O)c(O)c(=O)c1 | 8.25 µM |  |
| N#C/C(=C\c1cc2ccccc2c2ccccc12)c1ccccc1 | > 36.1 µM |  |
| CCOc1ccc2c(c1)[n+]([O-])c(-c1nc3ccccc3s1)c(N)[n+]2[O-] | > 100 µM |  |
| COc1ccc2c3c(coc13)C(CCC(=O)O)CC2 (configuration not stated) | > 100 µM |  |
| CS(=O)(=O)c1cc(=O)c2ccccc2s1 | 11.2 µM |  |
